Experimental data taken from paper PMC10461823, “ABCH2 transporter mediates deltamethrin uptake and toxicity in the malaria vector Anopheles coluzzii” (PLOS Pathogens, 2023).

Experiments:
ABCH2 [1] = biological target: T1, ABCH2 (Anopheles coluzzii, UniProt A0A6E8VHH0); experiment: malachite green ATPase assay, Sf9 inverted membrane vesicles; format: biochemical; settings: 120 uM deltamethrin, DMSO/ethanol, 1 mM ATP, MgCl2, Tris pH 8, 37 C, 15 min; empty-bacmid background subtracted; transport not shown directly
T1 construct: full ORF, codon-optimised for S. frugiperda, pFastBac1 baculovirus in Sf9 cells, untagged, membrane vesicles; about 85 kDa half-transporter, proposed homodimer
T1 sequence (A0A6E8VHH0 1-760): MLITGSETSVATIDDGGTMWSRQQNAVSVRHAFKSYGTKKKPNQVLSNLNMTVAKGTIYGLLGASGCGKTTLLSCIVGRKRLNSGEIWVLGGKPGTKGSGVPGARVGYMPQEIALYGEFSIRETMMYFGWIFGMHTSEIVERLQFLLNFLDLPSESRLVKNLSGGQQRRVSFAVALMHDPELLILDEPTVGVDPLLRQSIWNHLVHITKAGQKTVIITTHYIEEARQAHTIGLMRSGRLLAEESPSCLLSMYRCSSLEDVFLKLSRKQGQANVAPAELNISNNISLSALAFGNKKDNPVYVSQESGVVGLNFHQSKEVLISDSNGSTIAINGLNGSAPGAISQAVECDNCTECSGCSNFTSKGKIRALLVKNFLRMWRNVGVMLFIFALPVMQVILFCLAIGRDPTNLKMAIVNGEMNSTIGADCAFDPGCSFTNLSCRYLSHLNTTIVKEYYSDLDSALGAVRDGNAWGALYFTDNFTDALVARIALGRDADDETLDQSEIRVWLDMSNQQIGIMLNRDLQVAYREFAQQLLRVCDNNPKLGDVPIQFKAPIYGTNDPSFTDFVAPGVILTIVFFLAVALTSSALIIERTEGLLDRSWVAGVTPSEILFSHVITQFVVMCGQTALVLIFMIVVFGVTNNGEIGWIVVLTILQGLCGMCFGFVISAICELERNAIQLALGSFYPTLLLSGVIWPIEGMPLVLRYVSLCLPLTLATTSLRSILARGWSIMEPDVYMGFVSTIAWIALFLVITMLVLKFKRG

ABCH2 [2] = biological target: T1, ABCH2; experiment: as above; format: biochemical; settings: basal activity without deltamethrin, 1 mM ATP, MgCl2, Tris pH 8, 37 C, 15 min; empty-bacmid background subtracted
[3] = biological target: ABCH2 transporter (ATP-Binding Cassette transporter from the H family) of Anopheles coluzzii (Anopheles coluzzii)

In the case of `CC1(C)[C@H](C(=O)O[C@H](C#N)c2cccc(Oc3ccccc3)c2)[C@@H]1C=C(Br)Br` [deltamethrin], the “fold stimulation of basal ATPase activity at 120 uM” value (ABCH2 [1]) was ~ 1.6 fold.
In the case of `Nc1ncnc2c1ncn2[C@@H]1O[C@H](COP(=O)(O)OP(=O)(O)OP(=O)(O)O)[C@@H](O)[C@H]1O` [ATP], the “malachite green ATPase assay, Sf9 inverted membrane vesicles” value (ABCH2 [2]) was “indicate an ATP hydrolysis specific to ABCH2 expression”.
“ABCH2 transporter (ATP-Binding Cassette transporter from the H family) of Anopheles coluzzii (natural protein)” showed an estimated basal rate of ATP hydrolysis of ABCH2 in inverted membrane vesicles of Sf9 cells expressing ABCH2 on its own (pmoles Pi/pmol ABCH2/minute) [3] of 178.
